The source made the active and inactive calls. The calls are words filed in the database; no cut-off is given here.

This passage reports Activity, Kd and IC50 results from ChEMBL document CHEMBL5360584, “Sequence-Specific Dual DNA Binding Modes and Cytotoxicities of N-6-Functionalized Norcryptotackieine Alkaloids” (J Nat Prod, 2023).

The test system of experiment [1] is Calf thymus DNA. The experiment is described as follows: Binding affinity to calf thymus DNA assessed as change in absorption by UV-Vis spectrophotometric analysis. As to conditions: Bos taurus. Type of experiment: nucleic-acid assay.
The subject of experiment [2] is Calf thymus DNA. The experiment is described as follows: Binding affinity to calf thymus DNA assessed as dissociation constant by UV-Vis spectroscopic analysis. Type of experiment: nucleic-acid assay, Bos taurus.
Experiment [3] relates to Calf thymus DNA. Nature of the experiment: Binding affinity to calf thymus DNA assessed as dissociation constant measured at 337 nm absorbance by UV-Vis spectroscopic analysis. Type of experiment: nucleic-acid assay, Bos taurus.
Experiment [4] concerns Calf thymus DNA. The experiment is described as follows: Binding affinity to calf thymus DNA assessed as dissociation constant measured at 332 nm absorbance by UV-Vis spectroscopic analysis. Type of experiment: nucleic-acid assay, Bos taurus.
For experiment [5], the system named is Calf thymus DNA. Nature of the experiment: Binding affinity to calf thymus DNA assessed as dissociation constant by reverse titration method. Type of experiment: nucleic-acid assay, Bos taurus.
Experiment [6] has as its system Calf thymus DNA. Nature of the experiment: Binding affinity to calf thymus DNA assessed as dissociation constant. Type of experiment: nucleic-acid assay, Bos taurus.
In the next experiment the test system is HEK293. Nature of the experiment: Cytotoxicity against human HEK293 cells assessed as reduction in cell viability incubated for 24 hrs by MTT assay. Type of experiment: functional, cell-based. As to conditions: HEK293, 24 h. On the technique in general: Tetrazolium assays rely on reduction of a dye to a coloured formazan, in cell work by metabolically active cells.

A further experiment has as its system HeLa. The experiment is described as follows: Cytotoxicity against human HeLa cells assessed as reduction in cell viability incubated for 24 hrs by MTT assay. Type of experiment: functional, cell-based.
The next experiment has as its system SK-OV-3. The experiment is described as follows: Cytotoxicity against human SK-OV-3 cells assessed as reduction in cell viability incubated for 24 hrs by MTT assay. Type of experiment: functional, cell-based. As to conditions: SK-OV-3, 24 h.
The next experiment relates to B16-F10. Nature of the experiment: Cytotoxicity against mouse B16F10 cells assessed as reduction in cell viability incubated for 24 hrs by MTT assay. Type of experiment: functional, cell-based. As to conditions: B16-F10, 24 h.
The subject of a further experiment is OVCAR-3. Nature of the experiment: Cytotoxicity against human OVCAR-3 cells assessed as reduction in cell viability incubated for 24 hrs by MTT assay. As to conditions: OVCAR-3, 24 h. Type of experiment: functional, cell-based.

As for `CN(C)CCCn1c2ccccc2c2cc3ccccc3nc21`, the result with Calf thymus DNA [1] was Active. For the same compound, the Kd (commonly the free concentration of one partner at which half of the binding sites on the other are occupied at equilibrium, for simple one-to-one binding) in the experiment on Calf thymus DNA [2] is 20 µM; in the experiment with Calf thymus DNA [3], 120 µM; in the experiment on Calf thymus DNA [4], 10 µM; in the experiment on Calf thymus DNA [5], 17 µM.
On to `CN(C)CCCCn1c2ccccc2c2cc3ccccc3nc21`, for which the outcome in the experiment with Calf thymus DNA [1] was Active.
Still for that read-out and setting: the value for `c1ccc2nc3c(cc2c1)c1ccccc1n3CCCN1CCCC1` was “Active”.
On to `C[n+]1c2ccccc2cc2[n-]c3ccccc3c21` [CRYPTOLEPINE], for which the results for the Kd with Calf thymus DNA [2] and in the experiment on Calf thymus DNA [6] were 0.24 µM and 0.33 µM, respectively.
Regarding `c1ccc(Cn2c3ccccc3c3cc4ccccc4nc32)cc1`, the outcome with Calf thymus DNA [1] was Active.
For the compound `c1ccc(-n2c3ccccc3c3cc4ccccc4nc32)cc1`, the outcome with Calf thymus DNA [1] was Active.
Still for that read-out and setting: the value for `CCCCn1c2ccccc2c2cc3ccccc3nc21` was “Active”.
On the same count and under the same terms, as for `CN1CCN(CCCn2c3ccccc3c3cc4ccccc4nc32)CC1`, the entry is “Active”; as for `CN(C)CCn1c2ccccc2c2cc3ccccc3nc21`, “Active”.
For the compound `c1ccc2[nH]c3nc4ccccc4c-3cc2c1`, the IC50 with HEK293, in the experiment on HeLa, in the experiment with SK-OV-3, in the experiment with B16-F10 and with OVCAR-3 was more than 100 µM in each case. Also, the result with Calf thymus DNA [1] was Active.
In the case of `c1ccc2nc3c(cc2c1)c1ccccc1n3CCCN1CCOCC1`, the outcome with Calf thymus DNA [1] was Active.
Consider `CN(CCCn1c2ccccc2c2cc3ccccc3nc21)CCCn1c2ccccc2c2cc3ccccc3nc21`, for which the result with Calf thymus DNA [1] was Active.
`Cn1c2ccccc2c2cc3ccccc3nc21`: the half-maximal inhibitory concentration (IC50) in the experiment with HEK293, in the experiment on HeLa, in the experiment with SK-OV-3, in the experiment on B16-F10 and in the experiment on OVCAR-3 was more than 100 µM each time. The outcome in the experiment with Calf thymus DNA [1] was Active.
Regarding `c1ccc2nc3c(cc2c1)c1ccccc1n3CCCn1ccnc1`, the outcome in the experiment on Calf thymus DNA [1] was Active.
